The pIC50 is −log10 of the IC50, conventionally taken in molar units.

Series [1] relates to auricle edema induced by arachidonic acid. The series is described as follows: Inhibitory activity on auricle edema induced by arachidonic acid. Type of series: in vivo, ddY mice. The settings on record: mouse, oral, 1 hour after arachidonic acid. The protocol: EXPERIMENT 5: INHIBITORY ACTIVITY ON AURICLE EDEMA INDUCED BY ARACHIDONIC ACID
[…]. Dermatol. 82, p. 367, 1984. The mice were orally administered with a test drug suspended in 0 5% CMC-Na, and after one hour, 10 μl of arachidonic acid in acetone (50 mg/ml) were applied to front and back surfaces of the left auricles of each mouse. One hours later, the thicknesses of the left and right auricles were measured by means of a dial gauge, and the rate of edema of the left auricle was calculated in comparison with the right auricle (normal). Inhibitory rate of each drug-treated group against edema formation was calculated in comparison with the solvent-treated control.

Series [2] concerns paw edema induced by carageenin. The series is described as follows: Inhibitory activity on paw edema induced by carageenin. Type of series: in vivo, Wistar rats. The settings on record: rat, oral, 10 mg/kg, 3 hours after carageenin. As for the experimental part:
EXPERIMENT 4: INHIBITORY ACTIVITY ON PAW EDEMA INDUCED BY CARAGEENIN
Wistar rats (body weight: 110-130 g) starved overnight were orally administered with a test drug suspended in 0.5% CMC-Na, and after one hour, 0.1 ml of 1% carageenin solution (picnin-A, Zushi Kagaku) was subcutaneously injected into the right hind leg paw of each rat. Three hours later, the volume of the paw was determined by means of a plethysmometer (Model 7150, Ugo Basile Co.,Ltd.) and the rate of edema was evaluated in comparison with the volume of the paw before the carageenin injection as 100%. Inhibitory rate of each drug-treated group against edema formation was calculated in comparison with the solvent-treated control.

Series [3] concerns lipid peroxidation (crude homogenate prepared from brain tissues of Wistar rats). Briefly: Inhibitory activity on lipid peroxidation (anti-oxidation activity). Type of series: biochemical. The settings on record: rat brain homogenate, 37° C., 30 minutes; malondialdehyde, 532 nm. The protocol:
EXPERIMENT 1: INHIBITORY ACTIVITY ON LIPID PEROXIDATION (ANTI-OXIDATION ACTIVITY)
The captioned activity was evaluated according to the method described by Kakihana et al., Nihon Yakurigaku Zasshi (Folia Pharmacologica Japonica), 80, p. 225, 1982. To a 1 ml of a crude homogenate prepared from brain tissues of Wistar rats, 10 μl of a solution of test drug in dimethyl sulfoxide was added, and after pre-incubation under ice-cooling for 10 minutes, the mixture was subjected to a reaction at 37° C. for 30 minutes. The reaction was stopped by adding 200 μl of 35% perchloric acid to the mixture and then the mixture was centrifuged. To a 1 ml of the supernatant obtained, 0.5 ml of 0.5% thiobarbituric acid was added and the mixture was heated under a boiling water bath for 15 minutes. The mixture was cooled to room temperature and absorbance of the mixture at 532 nm was measured. The inhibitory rate was obtained using the amount of malondialdehyde generated by the solvent-treated control, which equals to 100%, and 50% median inhibitory concentration (IC50) was calculated according to the probit method as indexes of anti-oxidation activity.

For series [4], the system named is auricle edema induced by oxazolone. The series is described as follows: Effect on auricle edema induced by oxazolone (delayed allergy). Format: in vivo, ICR mice. To be noted: mouse, oral, 10 mg/kg × 2 (30 minutes before, 6 hours after), 24 hours. The protocol: EXPERIMENT 6: EFFECT ON AURICLE EDEMA INDUCED BY OXAZOLONE (DELAYED ALLERGY)
[…]. The mice were sensitized by the application of 0.1 ml of 0.5% oxazolone in ethanol to shaven abdominal skin. Five days later, inflammation was induced by applying 10 μl of 0.5% oxazolone in acetone to front and back surfaces Of the right auricle. After 24 hours, the thicknesses of the left and right auricles were measured by a dial gauge, and the rate of edema of the right auricle was calculated in comparison with the left auricle (normal). A test drug was suspended in 0.5% CMC--Na and orally administered twice to each mouse , i.e., 30 minutes before and 6 hours after the inflammation-inducing treatment. Inhibitory rate of each drug-treated group against edema was calculated in comparison with the solvent-treated control.

Series [5] deals with T1, cyclooxygenase (Ovis aries, UniProt P05979).
T1 construct: Sheep seminal vesicle microsome fraction (Funakoshi) was used as an enzyme sample; purchased Funakoshi; host or cells: sheep seminal vesicle microsome fraction
T1 sequence (P05979 25-600): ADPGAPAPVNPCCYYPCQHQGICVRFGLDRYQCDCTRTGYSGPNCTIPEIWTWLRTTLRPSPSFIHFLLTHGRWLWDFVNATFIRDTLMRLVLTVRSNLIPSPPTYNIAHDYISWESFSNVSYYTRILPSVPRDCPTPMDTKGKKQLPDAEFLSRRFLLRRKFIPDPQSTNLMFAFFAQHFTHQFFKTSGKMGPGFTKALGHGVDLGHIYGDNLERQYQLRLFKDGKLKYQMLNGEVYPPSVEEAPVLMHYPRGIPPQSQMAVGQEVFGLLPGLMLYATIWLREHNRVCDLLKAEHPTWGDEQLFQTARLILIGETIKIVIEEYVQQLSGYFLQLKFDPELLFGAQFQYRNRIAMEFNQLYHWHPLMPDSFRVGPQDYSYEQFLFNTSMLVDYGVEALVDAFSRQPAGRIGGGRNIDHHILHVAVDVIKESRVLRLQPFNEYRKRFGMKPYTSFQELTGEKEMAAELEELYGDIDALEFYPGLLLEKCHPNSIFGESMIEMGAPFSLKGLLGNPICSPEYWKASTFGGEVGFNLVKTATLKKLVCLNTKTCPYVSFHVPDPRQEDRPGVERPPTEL
The series is described as follows: Inhibitory activity on cyclooxygenase. Format: biochemical. To be noted: PGE2 generation, sheep seminal vesicle microsome, 16 μM 14C-arachidonic acid, pH 8.3. As for the experimental part: EXPERIMENT 3: INHIBITORY ACTIVITY ON CYCLOOXYGENASE
Sheep seminal vesicle microsome fraction (Funakoshi) was used as an enzyme sample. A solution of a test drug was mixed with a reaction solution (3 μM epinephrine, 3 mM glutathione, and the enzyme fraction in 100 mM Tris-HCI buffer, pH 8.3). The mixture was pre-incubated at 37° C. for 5 minutes, and then 16 μ M^14 C-arachidonic acid was added to the mixture, which was allowed to react for 3 minutes. After the completion of the reaction, the product was immediately extracted, dissolved in chloroform/methanol (2:1) and developed by thin-layer chromatography. Radioactivity of the prostaglandin E2 (PGE2) fraction was measured using a liquid scintillation counter. Inhibitory rate of each drug-treated group against PGE2 generation was obtained in comparison with the solvent-treated control, and IC50 was calculated according to the probit method.

Series [6] relates to ddY mice. The series is described as follows: Acute toxicity. Type of series: in vivo. The settings on record: mouse, oral, 600 mg/kg, observed for 2 weeks. From the text:
EXPERIMENT 9: ACUTE TOXICITY

The test system of series [7] is granuloma formation. The series is described as follows: Inhibitory activity on granuloma formation (proliferative inflammation). Format: in vivo, Wistar rats. To be noted: rat, oral, 10 mg/kg every day for 8 days. As for the experimental part:
EXPERIMENT 7: INHIBITORY ACTIVITY ON GRANULOMA FORMATION (PROLIFERATIVE INFLAMMATION)
Evaluation was carried out by using Wistar rats (120-140 g) according to the method described by Fujiyoshi et al., Nihon Yakurigaku Zasshi (Folia Pharmacologica Japonica), 87, p. 379, 1986. Back skin of the rat was lightly incised under anesthesia with pentobarbital, and filter paper discs for antibiotic assay (57 mg, 13.0.phi., Whatman) sterilized by autoclave were embedded under the skin at the both axillae. 0.1 ml of a mixture of streptomycin and penicillin G (each 1 mg/ml) was administered dropwise to the incised site and the incised skin was sutured. From the day of the disc embedment, a test drug suspended in 0.5% CMC--Na was orally administered to the rat every day for 8 days. The rat was sacrificed at the day of last administration and granuloma including the filter paper was extirpated from the circumferential tissue and dried at 110° C. overnight. The dry weight of the granuloma was measured and inhibitory rate of each drug-treated group against granulation formation was calculated in comparison with the solvent-treated control.

Series [8] addresses T2, 5-lipoxygenase (Cavia porcellus, UniProt A0A286X958).
T2 construct: crude enzyme fraction prepared from peritoneal exudated cells of guinea pigs; endogenous in cells; host or cells: guinea pig peritoneal exudate cells (induced by intraperitoneal casein), crude enzyme fraction
T2 sequence (A0A286X958 1-674): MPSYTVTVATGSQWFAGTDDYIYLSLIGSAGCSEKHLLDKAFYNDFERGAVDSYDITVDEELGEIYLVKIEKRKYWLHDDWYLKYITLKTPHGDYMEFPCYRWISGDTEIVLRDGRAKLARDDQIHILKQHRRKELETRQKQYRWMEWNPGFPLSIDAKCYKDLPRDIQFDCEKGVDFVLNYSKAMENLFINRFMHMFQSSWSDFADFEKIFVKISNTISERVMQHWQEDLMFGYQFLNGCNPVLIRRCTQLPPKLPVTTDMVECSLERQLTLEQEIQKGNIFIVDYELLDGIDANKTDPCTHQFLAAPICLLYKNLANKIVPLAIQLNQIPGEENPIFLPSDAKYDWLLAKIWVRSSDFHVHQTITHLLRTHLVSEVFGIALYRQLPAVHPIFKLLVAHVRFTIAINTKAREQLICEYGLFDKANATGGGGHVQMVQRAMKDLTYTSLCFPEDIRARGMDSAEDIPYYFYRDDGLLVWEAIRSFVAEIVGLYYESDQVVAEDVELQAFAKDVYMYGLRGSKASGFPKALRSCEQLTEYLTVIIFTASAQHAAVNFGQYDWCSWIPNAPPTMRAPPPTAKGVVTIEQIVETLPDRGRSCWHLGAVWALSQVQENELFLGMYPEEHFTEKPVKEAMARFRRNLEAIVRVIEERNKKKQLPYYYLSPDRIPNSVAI
Briefly: Inhibitory activity on 5-lipoxygenase. To be noted: 5-HETE generation, 20 μM 14C-arachidonic acid, pH 7.4, 37° C., 10 minutes. Format: biochemical, guinea pigs. As for the experimental part:
EXPERIMENT 2: INHIBITORY ACTIVITY ON 5-LIPOXYGENASE
5-Lipoxygenase activity was determined according to the method described by Ochi et al., J. Biol. Chem.,258, p. 5754, 1983 using a crude enzyme fraction prepared from peritoneal exudated cells of guinea pigs which were induced by intraperitoneal injection of 2% case in solution. A solution of a test drug was mixed with a reaction solution (2mM ATP, 1 mM glutathione,and the enzyme fraction in 50 mM phosphate buffer, PH 7.4) and the mixture was pre-incubated at 37° C. for 5 minutes. Calcium chloride (1 mM) and 20 μM^14 C-arachidonic acid were added to the mixture, and then the mixture was subjected to a reaction at 37° C. for 10 minutes. After the completion of the reaction, the product was immediately extracted, dissolved in chloroform/methanol (2:1), and developed by thin-layer chromatography. Radioactivity of the 5-hydroxyeicosatetraenoic acid (5-HETE) fraction was measured using a liquid scintillation counter. Inhibitory rate of each drug-treated group against 5-HETE generation was obtained in comparison with the solvent-treated control, and IC50 was calculated according to the probit method.

pIC50: −log10 of the molar value.

With `O=C(O)Cn1cccc1-c1cc(-c2ccccc2)c(-c2ccccc2)o1` [Compound 114], in series [1] (30 mg/kg), the “Inhibition on Edema (%)” value stood at 41.9%.
Consider `CC(C)c1cc(-c2cc(-c3ccccc3)c(-c3ccccc3)o2)n(CC(=O)O)c1` [Compound 117], for which, in series [2], the “Inhibition on Edema (%)” value is 50.9%. This compound also showed a pIC50 in series [3] of 5.32.
With `COc1ccc(-c2cc(-c3cc(C(C)C)cn3CC(=O)O)oc2-c2ccccc2)cc1` [Compound 142], the “Inhibition on Edema (%)” value is given as 62.2% in series [4] and 45.4% in series [2].
`COc1ccc(-c2oc(-c3cccn3CC(=O)O)cc2-c2ccccc2)cc1` [Compound 150]: in series [5], the negative-log IC50 (pIC50) was 7.09.
In series [3], `CCc1ccc(-c2cc(-c3ccc(OC)cc3)c(-c3ccc(C)cc3)o2)n1CC(=O)O` [Compound 165] had a negative logarithm of the IC50 (pIC50) of 5.56.
For the compound `COc1ccc(-c2cc(-c3cccn3CC(=O)O)oc2-c2ccc(OC)cc2)cc1` [Compound 175], the “Inhibition on Edema (%)” value in series [1] (30 mg/kg) was found to be 50.6%; in series [4], 52.1%; in series [2] it was 44.1%. Moreover, the “Dead Mice/Total Mice” value in series [6] is on record as 1/5. The pIC50 in series [3] was 5.44; in series [5] it was 7.16. Besides, the “Inhibition on Granuloma (%)” value in series [7] is on record as 32.2%.
With `COc1ccc(-c2cc(-c3cccn3C(C)C(=O)O)oc2-c2ccc(OC)cc2)cc1` (stereo not drawn) [Compound 176], the “Inhibition on Edema (%)” value was 30.6% in series [1] (30 mg/kg) and 56.4% in series [4]. Moreover, the negative-log IC50 (pIC50) in series [3] was 5.35; in series [5] it was 6.95. In series [7], the “Inhibition on Granuloma (%)” value is reported as 32.4%.
In turn, `COc1ccc(-c2cc(-c3cccn3CCC(=O)O)oc2-c2ccc(OC)cc2)cc1` [Compound 178] had a negative-log IC50 (pIC50) in series [3] of 5.49.
Regarding `COc1ccc(-c2oc(-c3cccn3CC(=O)O)c(C)c2-c2ccc(OC)cc2)cc1` [Compound 184], the values for the pIC50 in series [3] and in series [5] were 5.50 and 7.12, respectively.
As to `CCc1cc(-c2cc(-c3ccc(OC)cc3)c(-c3ccc(OC)cc3)o2)n(CC(=O)O)c1` [Compound 185], the negative logarithm of the IC50 (pIC50) in series [8] was 6.00; in series [3], 5.66; in series [5] it was 7.02.
In the case of `COc1ccc(-c2cc(-c3ccc(C)n3CC(=O)O)oc2-c2ccc(OC)cc2)cc1` [Compound 192], the “Dead Mice/Total Mice” value in series [6] was 0/5. Moreover, the negative logarithm of the IC50 (pIC50) was 6.04 in series [8] and 7.24 in series [5]. Further, the “Inhibition on Edema (%)” value in series [2] stood at 38.4%.
As for `CCCc1ccc(-c2cc(-c3ccc(OC)cc3)c(-c3ccc(OC)cc3)o2)n1CC(=O)O` [Compound 195], the “Inhibition on Edema (%)” value in series [1] (30 mg/kg) is on record as 43.9%. In series [8], this compound showed a negative-log IC50 (pIC50) of 6.04.
`CCOc1ccc(-c2cc(-c3ccc(CC)n3CC(=O)O)oc2-c2ccc(OCC)cc2)cc1` [Compound 217] gave a negative logarithm of the IC50 (pIC50) in series [3] of 5.61.
As to `CC(C)Cc1ccc(C(C)C(=O)O)cc1` (stereo not drawn) [Ibuprofen, reference compound], in series [1] (100 mg/kg), the “Inhibition on Edema (%)” value was determined as 0%.

Source of the values: patent US5321041A, “Diphenylpyrrolylfuran derivatives” (Nihon Iyakuhin Kogyo Co., Ltd., priority 1992, dated 1994).
